Data from patent US6410340B1, “Use of an 8.4 kDa protein as an immunophilin reagent in protein binding assays for immunosuppressive drugs” (Children's Research Institute, priority 2000, dated 2002).
pKd: −log10 of the molar value.

Key:
5-8 kDa immunophilin = settings: cited from earlier work
52 kDa immunophilin = settings: Davis et al. 2000; cited from earlier work
8.4 kDa immunophilin [1] = target: T1, 8.4 kDa immunophilin (Bos taurus, UniProt P62992); test: Binding of [mebmt-beta-3H]-CsA to the 8.4 kDa immunophilin; set-up: species or system calf; settings: too low to measure; dissociation constant could not be determined
T1 construct: from tissue; host or cells: calf thymus
Text: A dissociation constant for [mebmt-beta-3H]-CsA with the 8.4 kDa immunophilin could not be determined, as the binding of this drug to the protein was too low to measure (0.13%).

[2] = cited from earlier work; for fraction in the blood in the form of the parent compound: patients; for metabolites as share of all drug species in blood: rapamycin: trough blood samples
8.4 kDa immunophilin [3] = target: T1, 8.4 kDa immunophilin; test: Displacement of tritiated FK-506 from the 8.4 kDa immunophilin by RAP; type: binding, calf; settings: displacement of tritiated FK-506 by RAP; read-out: calculated Kd
Text: An immunophilin protein binding assay (“IBA”) carried out in accordance with this invention can be performed by solution phase or solid phase methods. The basic principle underlying each method is the same, and is described in, e.g., Davis et al., Clin. Biochem. 33:1(2000) and the Soldin patents listed above. Briefly, in a competitive IBA, a competition equilibrium is set up between a tracer amount of labeled drug and the corresponding drug in unknown samples containing the drug or biologically-active metabolites for binding to specific binding sites on an immunophilin. Following attainment of equilibrium, the amount of labeled drug bound to the immunophilin is determined. The amount of labeled drug bound will be reduced in proportion to the amount of analyte in a biological sample being analyzed. The quantitative relationship between the reduction of immunophilin-bound labeled drug and the concentration of the analyte in the unknown sample is determined by reference to a standard calibration curve. […] The amount of labeled drug bound to an immunophilin need not be determined directly; it may be determined by subtracting from the total amount of label added […] in the solution at equilibrium. […]

8.4 kDa immunophilin [4] = target: T1, 8.4 kDa immunophilin; test: Saturation analysis of tritiated FK-506 binding to calf thymus 8.4 kDa immunophilin (Scatchard, Hill plots); settings: tritiated FK-506, calf thymus 8.4 kDa immunophilin, EBDA/LIGAND
Text: Analytical data on purified immunophilins may be obtained conventionally. Association constants, specific binding activities, and numbers and types of binding sites can be obtained from Scatchard and Hill plots, using EBDA and LIGAND software. Isoelectric points (“pI”) can be obtained by isofocussing techniques. To obtain amino acid composition data, samples can be hydrolyzed by HCl gas in the presence of internal standards (e.g., norvaline and sarcosine), the products derivatized with a fluorescent reagent, and the derivatized amino acids separated on a Hewlett-Packard AMINO QUANT Analyzer. […]
An immunophilin protein binding assay (“IBA”) carried out in accordance with this invention can be performed by solution phase or solid phase methods. […] Following attainment of equilibrium, the amount of labeled drug bound to the immunophilin is determined. The amount of labeled drug bound will be reduced in proportion to the amount of analyte in a biological sample being analyzed. The quantitative relationship between the reduction of immunophilin-bound labeled drug and the concentration of the analyte in the unknown sample is determined by reference to a standard calibration curve. […] The amount of labeled drug bound to an immunophilin need not be determined directly; it may be determined by subtracting from the total amount of label added […] in the solution at equilibrium. […]

T1 sequence (P62992 1-74 limits assumed): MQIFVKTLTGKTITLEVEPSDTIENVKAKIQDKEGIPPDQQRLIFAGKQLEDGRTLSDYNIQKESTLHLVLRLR

Molecule	binding to 5-8 kDa immunophilin (5-8 kDa immunophilin)	binding to 52 kDa immunophilin (52 kDa immunophilin)	other results
(C9-C23)-OH-sirolimus	all but the fourth metabolite substantially binds	all but the fourth metabolite substantially binds	
cyclosporin A [CsA]			binding of the drug to the protein (8.4 kDa immunophilin [1]): 0.13%
41-0-demethyl sirolimus	substantially binds	substantially binds	
CO[C@H]1C[C@@H]2CC[C@@H](C)[C@@](O)(O2)C(=O)C(=O)N2CCCC[C@H]2C(=O)O[C@H]([C@H](C)C[C@@H]2CC[C@@H](O)[C@H](OC)C2)CC(=O)[C@H](C)/C=C(\C)[C@@H](O)[C@@H](OC)C(=O)[C@H](C)C[C@H](C)/C=C/C=C/C=C/1C [RAP, rapamycin]			fraction in the blood in the form of the parent compound [2]: ½; metabolites as share of all drug species in blood [2]: at least 50%; pKd (8.4 kDa immunophilin [3]): 10.10
(C1-C8 or C32-C36) OH sirolimus	substantially binds	substantially binds	
32,41-0-demethyl sirolimus	substantially binds	substantially binds	
7-0-demethyl sirolimus	substantially binds	substantially binds	
C=CC[C@@H]1/C=C(\C)C[C@H](C)C[C@H](OC)[C@H]2O[C@@](O)(C(=O)C(=O)N3CCCC[C@H]3C(=O)O[C@H](/C(C)=C/[C@@H]3CC[C@@H](O)[C@H](OC)C3)[C@H](C)[C@@H](O)CC1=O)[C@H](C)C[C@@H]2OC [FK-506]			fraction in the blood in the form of the parent compound [2]: ¾; metabolites as share of all drug species in blood [2]: about 30%; pKd (8.4 kDa immunophilin [4]): 9.10
